# Values joined by “and” are separate entries in the source; they are usually repeats but may differ in a detail not shown here. Equal entries are not always repeated.
# Key:
# [1] = biological target: T1, Leukotriene B4 receptor 2 (Homo sapiens, UniProt Q9NPC1)
# T1 sequence (Q9NPC1 whole entry): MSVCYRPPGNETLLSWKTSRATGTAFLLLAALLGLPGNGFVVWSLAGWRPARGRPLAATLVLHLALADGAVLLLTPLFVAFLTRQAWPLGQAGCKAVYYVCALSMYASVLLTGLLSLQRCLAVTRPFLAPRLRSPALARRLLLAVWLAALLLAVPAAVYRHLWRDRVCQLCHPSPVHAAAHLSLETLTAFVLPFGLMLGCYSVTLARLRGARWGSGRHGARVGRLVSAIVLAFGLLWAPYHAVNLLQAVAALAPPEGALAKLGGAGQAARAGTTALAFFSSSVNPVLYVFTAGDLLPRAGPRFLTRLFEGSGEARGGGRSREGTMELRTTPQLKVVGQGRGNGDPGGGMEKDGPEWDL
# [2] = biological target: Leukotriene B4 receptor 1 (Homo sapiens, UniProt Q15722)
# Sequence of Leukotriene B4 receptor 1 (Q15722 whole entry): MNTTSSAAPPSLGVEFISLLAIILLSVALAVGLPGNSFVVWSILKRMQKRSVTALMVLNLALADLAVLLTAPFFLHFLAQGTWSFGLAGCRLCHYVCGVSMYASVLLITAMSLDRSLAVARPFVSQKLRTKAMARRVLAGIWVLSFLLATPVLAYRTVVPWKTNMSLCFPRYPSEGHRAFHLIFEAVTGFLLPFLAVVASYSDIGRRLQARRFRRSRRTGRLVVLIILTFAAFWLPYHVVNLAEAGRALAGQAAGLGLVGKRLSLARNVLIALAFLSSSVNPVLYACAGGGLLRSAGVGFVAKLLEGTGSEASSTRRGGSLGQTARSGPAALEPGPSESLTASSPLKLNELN
Ki [1],Ki [2],SMILES
1000 nM,> 10 µM,CCCCCCCCC=CC=CC=CC(SCC(N)C(=O)NCC(=O)O)C(O)CCCC(=O)O (centres undefined) [LTD3]
1000 nM and 3000 nM,1 µM and > 10 µM,CCCCC/C=C\C/C=C\C/C=C\C=C\C(O)CCCC(=O)O [HETE-5(S)]
6000 nM,5.7 µM,CCCCCC=CCC=CC=CC=CC(SCC(NC(=O)CCC(N)C(=O)O)C(=O)O)C(O)CCCC(=O)O (centres undefined) [NSC_5283124]
4000 nM,> 10 µM,CCCCCCCCC=CC=CC=CC(SCC(N)C(=O)O)C(O)CCCC(=O)O (centres undefined) [LTE3]
3000 nM,> 10 µM,CC/C=C/C=C/CCC=CC=CC=CC(SCC(NC(=O)CCC(N)C(=O)O)C(=O)NCC(=O)O)C(O)CCCC(=O)O (centres undefined) [LTC5]
> 9000 nM,> 1.9 µM,CCCCCC=CCC=CC=CC=CC(SCC(NC(=O)CCC(N)C(=O)O)C(=O)NCC(=O)O)C(O)CCCC(=O)O (centres undefined) [CAS_5283121]
> 10000 nM,4 µM,"CCCCC/C=C\C\C=C/C=C/C=C/[C@@H](SC[C@H](N)C(=O)NCC(=O)O)[C@@H](O)CCCC(=O)O [5S-hydroxy-6R-(S-cysteinylglycinyl)-7E,9E,11E,14Z-eicosatetraenoic acid]"
173 nM,> 18 µM,CCCCC[C@@H](O)/C=C/C=C\C/C=C\C/C=C\CCCC(=O)O
> 1000 nM,> 30 µM,CCCCCC=CCC=CC=CC(O)CC=CCCCC(=O)O (centres undefined) [NSC_5283163]
> 4000 nM,> 14 µM,CCCCCCCCC=CC=CC=CC(SCC(NC(=O)CCC(N)C(=O)O)C(=O)NCC(=O)O)C(O)CCCC(=O)O (centres undefined) [LTC3]
6000 nM,2.37 µM,"CCCCC/C=C\C\C=C/C=C/C=C/[C@@H](SC[C@H](N)C(=O)O)[C@@H](O)CCCC(=O)O [(5S-(5R*,6S*(S*),7E,9E,11Z,14Z))-6-((2-Amino-2-carboxyethyl)thio)-5-hydroxy-7,9,11,14-eicosatetraenoic acid]"
–,> 10 µM,CC/C=C/CC=CCC=CC=CC=CC(SCC(N)C(=O)NCC(=O)O)C(O)CCCC(=O)O (centres undefined) [LTD5]

# The next lines start with the compound.
SMILES,Ki [1],Ki [2]
CCCCC/C=C\C[C@@H](O)/C=C/C=C/C=C\[C@@H](O)CCCC(=O)NCCCN [LTB4-3-aminopropylamide],1230 nM,0.0051 µM
CCCCCC=CCC=CCC=CCC#CCCCC(=O)O [NSC_1777],1000 nM,–
CC/C=C/CC=CCC=CC=CC=CC1OC1CCCC(=O)OC (centres undefined) [LTA5-ME],–,> 10 µM
CCCCCCC=CC(=O)C=CC=CCC=CCCCC(=O)O [NSC_5283162],155 nM,> 1 µM
COc1cc(C(=O)NS(=O)(=O)c2ccccc2C)ccc1Cc1cn(C)c2ccc(NC(=O)OC3CCCC3)cc12 [cyclopentyl 3-(2-methoxy-4-((o-tolylsulfonyl)carbamoyl)benzyl)-1-methylindole-5-carbamate],> 10000 nM,7.12 µM
"CCCCC/C=C\C[C@H](O)/C=C/c1cccc(C[C@H](O)CCCCO)n1 [(5R)-6-[6-[(1E,3S,5Z)-3-hydroxyundeca-1,5-dienyl]pyridin-2-yl]hexane-1,5-diol]",5430 nM,0.025 µM
CCCCCC(O)C=CC=CC=CC=CC(O)C(O)CCCC(=O)O (centres undefined) [NSC_5280914],1400 nM,1.44 µM
CCC=CCC=CCC(O)C=CC=CC=CC(O)CCCC(=O)O (centres undefined) [NSC_5283125],9.4 nM,0.0037 µM
CC(C)(O)c1ccccc1CCC(S)c1cccc(C=Cc2ccc3ccc(Cl)cc3n2)c1 (centres undefined) [NSC_5311297],> 10000 nM,> 10 µM
CCCCCC=CCC=CC=CC=CC1OC1CCCC(=O)OC (centres undefined) [NSC_126534],> 10000 nM,> 10 µM
O=C(O)CCCC=CCC=CCC=CCC=CCCCCCO [CAS_5283157],> 1000 nM,> 10 µM
CCCCCCCCC=CC=CC=CC1OC1CCCC(=O)OC (centres undefined) [LTA3-ME],> 10000 nM,5 µM
CCCCC/C=C\C/C=C\CC=CC=CC(=O)CCCC(=O)O [ETE-5-Oxo],> 1000 nM,> 1 µM
O=C(O)CCC[C@H](O)\C=C/C=C/C=C/[C@H](O)C/C=C\CCCCCO [LTB4-20-hydroxy],41 nM,0.00054 µM
